Laboratory results published in patent US11649261B2, “Crystalline forms of a CD73 inhibitor and uses thereof” (ARCUS BIOSCIENCES, INC., priority 2020, dated 2023).
“Also recorded” adds a separate entry of the source. Read-outs that look alike come from different tables or passages of the source.

Tests used:
Format in all cases: physicochemical
[1] = Equilibrium solubility of Form I and Form II + V in EtOH/EtOAc, with XRPD of the end solids; conditions: for Solubility (wt %) / solubility: overnight; for End Form by XRPD: slurry 20° C. overnight
Method: Equilibrium solubilities of Form I and Form V were measured in EtOH/EtOAc at different ratios at 20° C. The Form V starting material contains some Form II as determined by XRPD.
In a 4 mL vial, 50 mg of the appropriate solid was mixed with 1 mL of each solvent. The resulting slurry was shaken at 600 rpm at 20° C. overnight. The supernatant from each vial was sampled for HPLC for equilibrium solubility, and the solids isolated and characterized by XRPD.

[2] = Equilibrium solubility of Forms I, II and V in EtOH/Heptane; conditions: EtOH/HPT, all solvent ratios, 20 and 35° C.
Method: Equilibrium solubilities of Forms I, II and V were measured in EtOH/Heptane (HPT) solutions of different ratios at 20 and 35° C.
In 4 mL test vial, the appropriate solids (Form I or Form II containing Form V) were mixed with ˜1 mL of each solvent to generate slurry. The resulting slurry was shaken at 600 rpm at 20 and 35° C. overnight. After overnight aging, supernatant from each vial was sampled for HPLC for equilibrium solubility, solids were isolated to check by XRPD.

[3] = Competitive slurry of crystalline forms in a 1:2 mixture of EtOH(anhydrous):EtOAc; conditions: 1:2 EtOH (anhydrous):EtOAc
Method: A flask was charged with crystalline Form A (1.5 g) and crystalline Form I (1.5 g) with 30 mL of a 1:2 mixture of ethanol (anhydrous) and ethyl acetate. The resulting mixture was allowed to stir at room temperature for 5 hours resulting in a thick white slurry. An additional 6 mL of the 1:2 EtOH (anhydrous):EtOAc mixture was added. The suspension was allowed to stir for 5 days. A small sample of the suspension was pulled from the mixture after 22 hr, 46 hr and 118 hr. The samples were filtered, and dried in an oven at room temperature for 2-3 hr and characterized by XRPD.
A 20 mL vial was charged with 0.2 g of Form V and 0.2 g of Form I with 4 mL of a 1:2 EtOH (anhydrous):EtOAc mixture. The resulting suspension was stirred vigorously for 3 days. The suspension was filtered, and the solid was dried under reduced pressure at RT for 3 hr.
A 15 mL round bottom flask was equipped with a stir bar, thermometer and N2 inlet, and was charged with 0.25 g Form I and 0.25 g Form V. To the flask was added 6 mL of a 1:2 EtOH (anhydrous):EtOAc mixture was added to the flask resulting in a white suspension. The suspension was heated to 35° C. and stirred vigorously for 2 days. The suspension was filtered, and the resulting solid dried under reduced pressure at RT for 3 hr.
A 20 mL vial was charged with 0.2 g Form I and 0.2 g Form II. […]

[4] = Competitive slurry conversion testing of Forms I, II and V in EtOH/EtOAc at 20° C.
Method: The relative form stability between Forms I, II and V was investigated by aging mixtures of the mixed forms in EtOH, EtOAc, and mixtures thereof. The Form V starting material contained some Form II as determined by its XRPD pattern.
In two 4 mL vials, enough Form I and Form V (containing some Form II) were mixed with 1 mL of the appropriate solvent to generate a slurry in each vial. The two slurries were combined and shaken at 600 rpm at 20° C. The solids from the slurries were isolated for XRPD characterization at time 0, 1 day and 2 days (FIG. 12A-D).

[5] = Dynamic vapor sorption (DVS); conditions: for Form of post-DVS sample by XRPD: after DVS at 25° C.
Method: Approximately 10 mg of sample was placed into a mesh vapor sorption balance pan and loaded into a DVS-1, DVS Intrinsic or DVS Advantage dynamic vapor sorption balance by Surface Measurement Systems. The sample was subjected to a ramping profile from 40-90% relative humidity (RH) at 10% increments, maintaining the sample at each step until a stable weight had been achieved (dm/dt 0.004%, minimum step length 30 min, maximum step length 500 min) at 25° C. After completion of the sorption cycle, the sample was dried using the same procedure to 0% RH and then a second sorption cycle back to 90% RH. Two cycles were performed. The weight change during the sorption/desorption cycles were plotted, allowing for the hygroscopic nature of the sample to be determined. XRPD analysis was then carried out on any solid retained.
Form I and II were analyzed by dynamic vapor sorption (DVS) at 25° C. (FIG. 16 and FIG. 17).

[6] = Form V / Form II interconversion on storage, drying and reslurry
Method: Increasing the temperature to 40° C. and drying Form V under vacuum increased the conversion rate to Form II (full conversion observed after 48 hr).

[7] = 100 V % EtOH in EtOH/EtOAc, 20° C.
[8] = ≤20 v % EtOH system, aging for two days

Structure (SMILES): C[C@H](Nc1cc(Cl)nc2c1cnn2[C@@H]1O[C@H](COP(=O)(O)CP(=O)(O)O)[C@@H](O)[C@H]1O)c1ccccc1F [Form I, (((((2R,3S,4R,5R)-5-(6-chloro-4-(((S)-1-(2-fluorophenyl)ethyl)amino)-1H-pyrazolo[3,4-b]pyridin-1-yl)-3,4-dihydroxytetrahydrofuran-2-yl)methoxy)(hydroxy)phosphoryl)methyl)phosphonic acid]
- Solubility (wt %) ([1]; 0 V % EtOH in EtOH/EtOAc, 20° C.): 0.0% wt %
- End Form by XRPD ([1]; 0 V % EtOH in EtOH/EtOAc): Form I
- Solubility (wt %) ([1]; 20 V % EtOH in EtOH/EtOAc, 20° C.): 0.1% wt %
- End Form by XRPD ([1]; 20 V % EtOH in EtOH/EtOAc): Form I
- Solubility (wt %) ([1]; 33 V % EtOH in EtOH/EtOAc, 20° C.): 1.0% wt %
- End Form by XRPD ([1]; 33 V % EtOH in EtOH/EtOAc): Form I
- Solubility (wt %) ([1]; 50 V % EtOH in EtOH/EtOAc, 20° C.): 1.7% wt %
- End Form by XRPD ([1]; 50 V % EtOH in EtOH/EtOAc): Form I
- Solubility (wt %) ([1]; 67 V % EtOH in EtOH/EtOAc, 20° C.): 3.0% wt %
- End Form by XRPD ([1]; 67 V % EtOH in EtOH/EtOAc): Form I
- Solubility (wt %) ([1]; 80 V % EtOH in EtOH/EtOAc, 20° C.): 4.2% wt %
- End Form by XRPD ([1]; 80 V % EtOH in EtOH/EtOAc): Form I
- Solubility (wt %) [1, 7]: 6.4% wt %
- solubility [1, 7]: 46.54 mg/mL
- End Form by XRPD ([1]; 100 V % EtOH in EtOH/EtOAc): Form I
- Relative form stability ([1]; EtOAc rich solvent system except for too high EtOAc (with too low solubility)): more stable than Forms II and V
- solubility ([1]; EtOH/EtOAc solvent mixture, 20 °C, organic solvent or mixture, thermodynamic from solid, 20 V % EtOH in EtOH/EtOAc, 20° C., read-out: Solubility): 1.01 mg/mL
- solubility ([1]; EtOH/EtOAc solvent mixture, 20 °C, organic solvent or mixture, thermodynamic from solid, 33 V % EtOH in EtOH/EtOAc, 20° C., read-out: Solubility): 8.93 mg/mL
- solubility ([1]; EtOH/EtOAc solvent mixture, 20 °C, organic solvent or mixture, thermodynamic from solid, 50 V % EtOH in EtOH/EtOAc, 20° C., read-out: Solubility): 13.7 mg/mL
- solubility ([1]; EtOH/EtOAc solvent mixture, 20 °C, organic solvent or mixture, thermodynamic from solid, 67 V % EtOH in EtOH/EtOAc, 20° C., read-out: Solubility): 23.7 mg/mL
- solubility ([1]; EtOH/EtOAc solvent mixture, 20 °C, organic solvent or mixture, thermodynamic from solid, 80 V % EtOH in EtOH/EtOAc, 20° C., read-out: Solubility): 32.8 mg/mL
- solubility ([1]; EtOH/EtOAc solvent mixture, 20 °C, organic solvent or mixture, thermodynamic from solid, 100 V % EtOH in EtOH/EtOAc, 20° C., read-out: Solubility): ~46 mg/mL
- Crystal form change in solubility vials ([1]; EtOH/EtOAc, all ratios, 20° C.): No crystal form change
- Solubility compared between forms [2]: higher than the solubility of Form II/V mixtures
- Relative form stability ([3]; 35° C., 2 days): more stable than Form V; also recorded: more stable than Form II
- Relative form stability ([3]; RT): more stable than Form A; also recorded: more stable than Form V; also recorded: more stable than Form II
- Form conversion in competitive slurry ([4]; solvents with ≥80 v % EtOH): converted to Form II
- Form conversion in competitive slurry [4, 8]: remained
- Form of post-DVS sample by XRPD [5]: conversion to Form VI

Structure (SMILES): C[C@H](Nc1cc(Cl)nc2c1cnn2[C@@H]1O[C@H](COP(=O)(O)CP(=O)(O)O)[C@@H](O)[C@H]1O)c1ccccc1F [Form II, (((((2R,3S,4R,5R)-5-(6-chloro-4-(((S)-1-(2-fluorophenyl)ethyl)amino)-1H-pyrazolo[3,4-b]pyridin-1-yl)-3,4-dihydroxytetrahydrofuran-2-yl)methoxy)(hydroxy)phosphoryl)methyl)phosphonic acid]
- Relative form stability ([1]; EtOH rich or EtOAc lean solvent systems): more stable than Forms I and V
- Form recovered after resuspending ([6]; 1:1 EtOH:EtOAc mixture overnight with stirring): recovery of Form V
- Form of post-DVS sample by XRPD [5]: conversion to Form VI
- Water uptake compared with Form I ([5]; from 40% to 70% relative humidity (RH), 25° C.): much less water uptake

Structure (SMILES): C[C@H](Nc1cc(Cl)nc2c1cnn2[C@@H]1O[C@H](COP(=O)(O)CP(=O)(O)O)[C@@H](O)[C@H]1O)c1ccccc1F [Form V, (((((2R,3S,4R,5R)-5-(6-chloro-4-(((S)-1-(2-fluorophenyl)ethyl)amino)-1H-pyrazolo[3,4-b]pyridin-1-yl)-3,4-dihydroxytetrahydrofuran-2-yl)methoxy)(hydroxy)phosphoryl)methyl)phosphonic acid]
- Time for full conversion to Form II ([6]; 40° C., drying under vacuum): 48 h
- Time for full conversion to Form II ([6]; stored at ambient temperature under an N2 blanket): > 48 h
- Form conversion in competitive slurry ([4]; 50~33 v % EtOH solvents): converted to Form I
- Form conversion in competitive slurry ([4]; solvents with ≥80 v % EtOH): converted to Form II
- Form conversion in competitive slurry [4, 8]: remained
